Columns and labels:
[1] = tested on: human mesenchymal stem cells (hMSC); experiment: Proteomic analysis (mass spectrometry) of conditioned media of treated hMSC; format: cell-based; settings: one hour Celastrol 10^−6 M
Method: Conditioned cell media was collected, concentrated, proteins were separated by gel electrophoresis and analyzed by mass spectrometry and identified through database search.
Briefly, rat MSCs were treated in suspension with conditioning compounds for 60 minutes. Cells were then washed, labeled with fluorescent cell tracker and injected at t=0 in rat left ischemic hindlimb. Transplanted cells were imaged in vivo until day 9 using Optix™ MX3 Molecular Imaging System from ART (FIG. 2: A,B).

[2] = tested on: human mesenchymal stem cells (hMSC); experiment: mRNA expression in hMSC by real-time PCR; format: cell-based
Text: FIG. 25A is a table representing mRNA expression of selected genes measured by real-time PCR in human mesenchymal stem cells (hMSC) conditioned with Celastrol alone or in combination with selected adjunct agents. Results are expressed as fold change versus Vehicle-treated cells.
FIG. 25B is a table representing mRNA expression of selected genes measured by real-time PCR in human mesenchymal stem cells (hMSC) conditioned with selected Celastrol analogs alone or in combination with selected adjunct agents. Results are expressed as fold change versus Vehicle-treated cells.
Results are expressed as fold change versus Vehicle-treated cells. (Arbitrary angiogenic index: (VEGFa+FGF2+SDF1)*2) (A=Additive effect; S=Synergistic effect).
(§1) To test the second main condition, MSCs were treated with the candidate pharmaco-optimizers for 1 hour, followed by 3 hours washout period. Cell mRNA was extracted and expression of genes of interest was quantified by real time PCR. In additional MSC cultures, cells were treated for one hour, washed and cultured in low serum media for 24 hours. The media containing paracrine factors secreted by MSCs was then placed in contact with H9c2 cardiomyoblast cell line. H9c2 cells were then submitted to the hypoxia/serum starvation (<1% O2 in hypoxia chamber in low serum media for 48 hours) or oxidative stress (incubation in media for 1 hour spiked with 0-1 mM H2O2). Viability status of H9c2 cells was evaluated using the LIVE/DEAD assay as detailed above.

[3] = tested on: human mesenchymal stem cells (hMSCs); experiment: VEGFa protein secreted by hMSC into culture medium; format: cell-based; settings: 1-hour treatment combined with Celastrol; for VEGF protein after 48 hours in hypoxic condition: compared with normal culture; for VEGF protein after 48 hours in normal culture: normoxic
[4] = tested on: rat mesenchymal stem cells (rMSC); experiment: rMSC viability after hypoxia/serum starvation (LIVE/DEAD); format: cell-based; settings: 1-hour treatment; for protection of rMSCs from 48-hour hypoxia induced cell death: compound alone
Method: (§2) To test the first main condition, MSCs (either sourced from rat or humans) were treated with the candidate pharmaco-optimizers, washed and submitted to hypoxia/serum starvation (<1% O2 in hypoxia chamber in low serum media for 48-72 hours) or oxidative stress (incubation in media for 1 hour spiked with 0-2 mM H2O2), which mimic the major lethal stressors present in the ischemic transplant microenvironment. Viability status of cells are assessed using the LIVE/DEAD viability/cytotoxicity kit (Life Technologies™) and results are quantified by Operetta high content screening (HCS) apparatus equipped with Harmony automated analysis software (Perkin Elmer™).

[5] = tested on: rat mesenchymal stem cells (rMSC); experiment: rMSC viability after oxidative stress (H2O2, LIVE/DEAD); format: cell-based; settings: 1-hour treatment
Method: as §2

H9c2 cardiomyoblasts [6] = experiment: H9c2 viability after oxidative challenge, direct treatment with Celastrol combinations; format: cell-based, rat; settings: 1-hour treatment combined with Celastrol; 1 mM H2O2 for 1 hour
H9c2 cells = experiment: H9c2 viability in oxidative stress after pre-conditioning with media from treated rMSC (paracrine); format: cell-based, rat; settings: 24-hour preconditioning with media from treated rMSC
Method: as §1

[7] = tested on: rat mesenchymal stem cells (rMSC); experiment: mRNA expression in rMSC by real time PCR; format: cell-based; settings: for effect on Celastrol-induced Catalase (CAT) mRNA expression / effect on Celastrol-induced FGF2 mRNA expression / effect on Celastrol-induced Glutathione peroxidase (GPx) mRNA expression / effect on Celastrol-induced Glutathione reductase (GR) mRNA expression / effect on Celastrol-induced HSP32 (HO-1) mRNA expression / effect on Celastrol-induced HSP70 mRNA expression / effect on Celastrol-induced Superoxide dismutase 1 (SOD1) mRNA expression / effect on Celastrol-induced VEGFα mRNA expression / effect on Celastrol-induced downregulation of TNFα mRNA / effect on Celastrol-induced HSP70 expression in two other rMSC cell lines: combined with Celastrol
Method: as §1
Combination Treatments Tested—First Experiment: Celastrol (1 μM) or Gedunin (1 μM)+EGCG (1 μM, 10 μM) or TBHQ (1 μM, 5 μM)

H9c2 cardiomyoblasts [8] = experiment: HO-1 and VEGFa mRNA in H9c2 cardiomyoblasts by real-time PCR; format: cell-based, rat; settings: H9c2, 1-hour with Celastrol plus adjunct, 3 hour washout in normoxic or hypoxic condition
Text: Results are expressed as fold change versus Vehicle-treated h9c2.

[9] = rMSC, 1-hour treatment and 3-hour washout
[10] = rMSC, 1-hour treatment and 3-hour washout, combined with Gedunin
[11] = 1-hour treatment and 3-hour washout, combined with Celastrol

Row | Compound | ranking as adjunct agent in combination with Celastrol or Celastrol analogs (gene expression) ([2]; FIGS. 25A, 25B, 26A to 26D) | VEGF protein after 48 hours in hypoxic condition [3] | VEGF protein after 48 hours in normal culture [3] | protection of rMSCs from 48-hour hypoxia induced cell death [4] | viability of H9c2 cells following oxidative challenge (H9c2 cardiomyoblasts [6]) | protection of H9c2 cells from oxidative stress induced death (paracrine) (H9c2 cells) | effect on Celastrol-induced Catalase (CAT) mRNA expression [7, 9] | effect on Celastrol-induced FGF2 mRNA expression [7, 9] | effect on Celastrol-induced Glutathione peroxidase (GPx) mRNA expression [7, 9] | effect on Celastrol-induced Glutathione reductase (GR) mRNA expression [7, 9] | effect on Celastrol-induced HSP32 (HO-1) mRNA expression [7, 9] | effect on Celastrol-induced HSP70 mRNA expression [7, 9] | effect on Celastrol-induced Superoxide dismutase 1 (SOD1) mRNA expression [7, 9] | effect on Celastrol-induced VEGFα mRNA expression [7, 9] | effect on Celastrol-induced downregulation of TNFα mRNA [7, 9] | effect on Gedunin-induced downregulation of TNFα mRNA [7, 10] | effect on Celastrol-induced HSP70 expression in two other rMSC cell lines [7] | also measured
1 | CC1=C(O)C(=O)C=C2C1=CC=C1[C@@]2(C)CC[C@@]2(C)[C@@H]3C[C@](C)(C(=O)O)CC[C@]3(C)CC[C@]12C [Celastrol] | – | – | – | – | – | – | – | – | – | – | – | – | – | – | – | – | – | increased level of CAT in the culture media [1]: 1,7 fold; increased level of GSH in the culture media [1]: 2,8 fold; increased level of HGF in the culture media [1]: 2,1 fold; increased level of HO1 in the culture media [1]: 2,2 fold; increased level of HSP70 in the culture media [1]: 1,8 fold; increased level of HSP90a in the culture media [1]: 7,0 fold; increased level of HSP90b in the culture media [1]: 2,2 fold; increased level of MCSF in the culture media [1]: 24,4 fold; increased level of TRX in the culture media [1]: 2,5 fold
2 | COc1cc(/C=C/C(=O)CC(=O)/C=C/c2ccc(O)c(OC)c2)ccc1O [Curcumin] | among top adjunct agents | even greater expression of VEGF protein | additive to synergistic increase in VEGF protein | – | – | – | – | – | – | – | – | – | – | – | – | – | – | –
3 | Cc1c(O)c(O)cc2c1CC=C1[C@@]2(C)CC[C@@]2(C)[C@@H]3C[C@](C)(C(=O)O)CC[C@]3(C)CC[C@]12C [Dihydrocelastrol, dihydrocelastrol] | – | – | – | – | – | – | – | – | – | – | – | – | – | – | – | – | – | ranking as HSP90 inhibitor from expression of HSPs, growth factors, antioxidant proteins/enzymes, cytokines, matrix remodeling proteins ([2]; FIGS. 25A, 25B, 26A to 26D): best HSP90 inhibitors
4 | O=C(O[C@@H]1Cc2c(O)cc(O)cc2O[C@@H]1c1cc(O)c(O)c(O)c1)c1cc(O)c(O)c(O)c1 [EGCG, epigallocatechin gallate] | among top adjunct agents | even greater expression of VEGF protein | additive to synergistic increase in VEGF protein | not | synergistic increase in viability | protects | synergistic increase | synergistic increase | synergistic increase | synergistic increase | synergistic increase | synergistic increase | synergistic increase | synergistic increase | synergistically accentuate | synergistically accentuate | synergistic increase | effect on Celastrol-mediated protection of rMSCs from hypoxia induced cell death ([4]; combined with Celastrol): potentiates Celastrol-mediated protection; effect on Celastrol-induced protection of rMSCs from oxidative stress induced death ([5]; combined with Celastrol): potentiates Celastrol-induced protection; protection of rMSCs from oxidative stress induced death ([5]; compound alone): protect; effect on Celastrol-induced HSP32 (HO-1) mRNA expression in human MSC [2, 11]: synergistic increase; effect on Celastrol-induced HSP70 mRNA expression in human MSC [2, 11]: synergistic increase; mRNA expression of HO-1 (H9c2 cardiomyoblasts [8]): increased mRNA expression; mRNA expression of VEGFa (H9c2 cardiomyoblasts [8]): increased mRNA expression
5 | CC(C)(C)c1cc(O)ccc1O [tBHQ, tert-Butylhydroquinone] | among top adjunct agents | even greater expression of VEGF protein | additive to synergistic increase in VEGF protein | not | synergistic increase in viability | protects | synergistic increase | synergistic increase | synergistic increase | synergistic effect only at low dose | synergistic increase | synergistic increase | no effect | decreases | synergistically accentuate | synergistically accentuate | no effect | FGF2 mRNA expression, combination with Gedunin [7, 10]: increased; effect on Gedunin expression of VEGF ([7]; rMSC, combined with Gedunin): decreases

Source: patent US11446265B2, “Reagents, compositions and methods for improving viability and function of cells, tissues and organs” (TARGA BIOMEDICAL, priority 2016, dated 2022)
